Active and inactive are the calls of the source. No rule for the calls is given here.

For this assay, the system named is M. tuberculosis H37Rv growth inhibition with meropenem. The assay is described as follows: dose response, H37Rv, with and without meropenem (AID 434987).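 Also: growth over 7 days at 37 °C before Alamar Blue read on day 9.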
The mark [1] stands for this setting: M. tuberculosis H37Rv growth inhibition, measured here: IC50 without meropenem.
[2] abbreviates: M. tuberculosis H37Rv growth inhibition, measured here: IC90 without meropenem.
The mark [3] stands for this setting: measured here: IC90 with meropenem.

Consider `CCSc1nnc(NC(=O)Cn2cnc3ccccc3c2=O)s1`, for which the IC50 was > 100 µM (inactive). The molecule also registered an IC50 under setting [1] greater than 100 µM. The molecule further came in with an IC90 under setting [2] greater than 100 µM. Under setting [3], the IC90 was greater than 100 µM.
In the case of `Cc1nnc(SCc2cccc(Cl)c2)n(N)c1=O`, the IC50 is 4.43 µM. In addition, the half-inhibitory concentration (IC50) under setting [1] was 12 µM. In addition, the IC90 under setting [2] came out at 18.1 µM. The same molecule showed an IC90 under setting [3] of 10.1 µM.
`COc1ccccc1C(c1c(N)n(C)c(=O)n(C)c1=O)C(C)[N+](=O)[O-]` (configuration not stated): the IC50 was 11.2 µM (inactive). Under setting [1], this molecule showed an IC50 of 21.4 µM. The IC90 under setting [2] is 28.9 µM. In addition, under setting [3], the IC90 was found to be 18 µM.
For `COc1ccc(-c2csc(Nc3ccc(C)cn3)n2)cc1OC` the same measures were 44.3 µM (inactive), greater than 100 µM, greater than 100 µM and greater than 100 µM.
For `COc1cc(NC(=S)NC(=O)c2ccco2)ccc1NC(=O)C(C)C` the same measures were 99.6 µM (inactive), greater than 100 µM, greater than 100 µM and greater than 100 µM.
For the molecule `C=CCSc1nccc(-c2nn(-c3ccc(C)cc3)ccc2=O)n1`, the IC50 was 94.1 µM (inactive). The molecule also had an IC50 under setting [1] greater than 100 µM. Under setting [2], this molecule showed an IC90 greater than 100 µM. For the same molecule, under setting [3], the IC90 was greater than 100 µM.
Regarding `CCC(=O)NC(=S)Nc1ccc(NC(=O)c2ccc(C)c([N+](=O)[O-])c2)cc1`, the IC50 was > 100 µM (inactive). The molecule further had an IC50 under setting [1] greater than 100 µM. Besides, the IC90 under setting [2] is greater than 100 µM. The molecule also had an IC90 under setting [3] greater than 100 µM.
For the molecule `COc1cc(NC(=S)NC(=O)c2cccs2)ccc1NC(=O)C(C)C`, the IC50 is > 100 µM (inactive). This molecule showed an IC50 under setting [1] greater than 100 µM. Moreover, under setting [2], the IC90 was greater than 100 µM. Further, under setting [3], the IC90 is greater than 100 µM.
On to `C=CCSc1nc2c(c(-c3ccsc3)c1C#N)CN(C)CC2`, for which the IC50 is 50.6 µM (inactive). In addition, the IC50 under setting [1] turned out to be 65.7 µM. Further, the IC90 under setting [2] is greater than 100 µM. Under setting [3], this molecule gave an IC90 of 55.1 µM.
On to `Cc1cc(C)c(C)c(S(=O)(=O)N2C(=S)NC(=O)C2C(C)C)c1C` (configuration not stated), for which the half-maximal inhibitory concentration (IC50) is 10.1 µM. The molecule further registered an IC50 under setting [1] of 38.5 µM. The IC90 under setting [2] was greater than 100 µM. The IC90 under setting [3] was greater than 100 µM.
In the case of `c1ccc(-c2oc3ncnc(NCCN4CCOCC4)c3c2-c2ccccc2)cc1`, the IC50 was > 100 µM (inactive). Under setting [1], this molecule showed an IC50 greater than 100 µM. This molecule yielded an IC90 under setting [2] greater than 100 µM. This molecule also had an IC90 under setting [3] greater than 100 µM.
Consider `Cn1c(=S)[nH]c2sc3c(c2c1=O)CCC(C(C)(C)C)C3` (configuration not stated), for which the IC50 is 38 µM (inactive). The molecule further registered an IC50 under setting [1] of 79 µM. For the same molecule, under setting [2], the IC90 is greater than 100 µM. The IC90 under setting [3] was greater than 100 µM.
As for `Cc1ccc(C)c(-n2c(-c3ccco3)n[nH]c2=S)c1`, the IC50 was 14 µM. Under setting [1], this molecule had an IC50 of 48.9 µM. Further, the IC90 under setting [2] was greater than 100 µM. Besides, the IC90 under setting [3] is greater than 100 µM.
Turning to `NNC(=O)c1oc2nc(-c3ccco3)cc(-c3ccco3)c2c1N`, the IC50 is 13.6 µM (inactive). The molecule also had a half-inhibitory concentration (IC50) under setting [1] of 23.9 µM. In addition, the IC90 under setting [2] is greater than 100 µM. Further, under setting [3], the IC90 is greater than 100 µM.
In the case of `Cc1c(-c2ccccc2)cnc2c(C)cccc12`, the IC50 was 59.9 µM (inactive). Under setting [1], this molecule registered a half-maximal inhibitory concentration (IC50) of 95.6 µM. Under setting [2], the IC90 is greater than 100 µM. Besides, the IC90 under setting [3] was greater than 100 µM.
Take `CCOC(=O)C1=C(N)OC(CCl)=C(C#N)C1c1ccsc1` (configuration not stated): the IC50 was > 100 µM (inactive). Moreover, under setting [1], the IC50 was greater than 100 µM. The molecule further showed an IC90 under setting [2] greater than 100 µM. For the same molecule, under setting [3], the IC90 was greater than 100 µM.
Consider `O=C(O)c1cc(-c2ccco2)nc2ccc(Br)cc12`, for which the IC50 is > 100 µM (inactive). Under setting [1], this molecule showed an IC50 greater than 100 µM. Besides, the IC90 under setting [2] was greater than 100 µM. Further, the IC90 under setting [3] is greater than 100 µM.
Take `O=C(c1ccccc1)N1CCC(CC2CC(c3cccc(Br)c3)=NO2)(C(=O)NCC2CCCCC2)CC1` (configuration not stated): the IC50 was 46.8 µM (inactive). Also, the IC50 under setting [1] is greater than 100 µM. The IC90 under setting [2] is greater than 100 µM. In addition, the IC90 under setting [3] is greater than 100 µM.
Consider `O=C(Nc1ccccc1)Nc1csc2ccccc12`, for which the IC50 is less than 0.2 µM. The IC50 under setting [1] was determined as 23.9 µM. The molecule further registered a concentration for an effect of 90% (IC90) under setting [2] greater than 100 µM. Under setting [3], the IC90 turned out to be 20.9 µM.
`COc1ccccc1/C=C/C(=O)NCC(=O)N/N=C/c1cc(Br)ccc1OC`: the IC50 is 24 µM. The molecule also came in with an IC50 under setting [1] greater than 100 µM. In addition, the IC90 under setting [2] is greater than 100 µM. This molecule also showed an IC90 under setting [3] greater than 100 µM.
Take `Cc1cc2ccccn2c1C(=O)c1ccc([N+](=O)[O-])o1`: the IC50 was > 100 µM (inactive). Besides, the IC50 under setting [1] is greater than 100 µM. The IC90 under setting [2] was greater than 100 µM. The molecule also had an IC90 under setting [3] greater than 100 µM.
Consider `O=C(COc1ccccc1[N+](=O)[O-])N(Cc1cccc(Br)c1)C1CCS(=O)(=O)C1` (configuration not stated), for which the IC50 was > 100 µM (inactive). The IC50 under setting [1] was greater than 100 µM. Besides, under setting [2], the IC90 is greater than 100 µM. Also, the IC90 under setting [3] was greater than 100 µM.
Regarding `CCCN1C(=O)S/C(=C/c2ccc(N3CCOCC3)o2)C1=O`, the IC50 was less than 0.2 µM. The IC50 under setting [1] is 34.9 µM. Under setting [2], the IC90 is greater than 100 µM. The 90% effect concentration (IC90) under setting [3] was greater than 100 µM.

Values taken from PubChem BioAssay AID434987 (Southern Research Specialized Biocontainment Screening …, 2010).
